{"source": "patent US20020026053A1", "about": "“Novel 3-(substituted) -2- indolinones compounds and use thereof as inhibitors of protein kinase activity” (priority 1997, published 2002)", "data": [{"target": "T1, Met receptor (EGFR/Met chimeric cells, EMR) (Homo sapiens, UniProt P08581)", "T1 construct": "expressed in transfected cells; the other entry of the earlier key: EGFR (P00533, Epidermal growth factor receptor)", "T1 sequence (P08581 with tags, fused parts or gaps)": "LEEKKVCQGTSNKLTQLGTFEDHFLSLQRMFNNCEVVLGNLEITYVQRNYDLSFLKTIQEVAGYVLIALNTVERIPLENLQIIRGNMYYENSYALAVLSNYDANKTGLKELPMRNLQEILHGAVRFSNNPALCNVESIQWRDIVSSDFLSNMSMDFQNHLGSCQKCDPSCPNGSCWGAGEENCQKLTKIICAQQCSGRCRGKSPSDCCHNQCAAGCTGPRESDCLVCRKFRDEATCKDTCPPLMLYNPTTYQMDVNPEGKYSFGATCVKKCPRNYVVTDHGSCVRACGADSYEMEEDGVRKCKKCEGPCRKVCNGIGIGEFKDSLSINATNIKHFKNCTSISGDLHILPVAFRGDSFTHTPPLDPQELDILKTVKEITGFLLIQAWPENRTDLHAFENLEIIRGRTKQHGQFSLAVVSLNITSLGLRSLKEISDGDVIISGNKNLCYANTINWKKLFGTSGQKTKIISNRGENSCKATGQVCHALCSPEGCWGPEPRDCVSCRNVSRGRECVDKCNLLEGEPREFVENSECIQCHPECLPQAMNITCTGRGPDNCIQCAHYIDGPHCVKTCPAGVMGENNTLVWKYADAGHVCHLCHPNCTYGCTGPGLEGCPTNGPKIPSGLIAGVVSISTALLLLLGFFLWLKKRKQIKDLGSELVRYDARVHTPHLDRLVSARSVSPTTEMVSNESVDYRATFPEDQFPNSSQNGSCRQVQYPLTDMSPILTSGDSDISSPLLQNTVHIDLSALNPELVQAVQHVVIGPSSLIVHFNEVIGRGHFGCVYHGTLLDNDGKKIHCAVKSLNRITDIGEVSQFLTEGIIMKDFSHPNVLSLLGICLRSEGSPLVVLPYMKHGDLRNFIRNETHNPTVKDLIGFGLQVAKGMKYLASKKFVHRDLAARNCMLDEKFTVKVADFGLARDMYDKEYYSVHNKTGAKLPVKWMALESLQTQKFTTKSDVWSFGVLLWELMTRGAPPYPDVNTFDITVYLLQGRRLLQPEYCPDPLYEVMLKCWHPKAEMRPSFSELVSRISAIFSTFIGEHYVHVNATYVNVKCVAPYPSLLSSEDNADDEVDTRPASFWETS", "assay": "Met Autophosphorylation Assay", "assay_type": "biochemical", "conditions": "protocol P.130", "procedure,_shortened": "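Met phosphorylation was measured by capture ELISA. Lysates (90 μg/100 μl, HNTG plus 1 mM PMSF) from transiently transfected EGFR/Met chimera (EMR) cells were bound for 60 min at room temperature to wells holding rabbit anti-Met (C-28) on goat anti-rabbit coat. Phosphotyrosine was the read-out.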", "values": [{"smiles": "Cc1c(Br)ccc2c1C(=Cc1ccc(CO)o1)C(=O)N2", "note": "[10739/C11]", "Met Kinase % Inhibition (P.130)": "61.0%"}, {"smiles": "CNS(=O)(=O)c1ccc2c(c1)C(=Cc1ccc(OC)c(C)c1)C(=O)N2", "note": "[10739/D02]", "Met Kinase % Inhibition (P.130)": "29.0%"}, {"smiles": "CNS(=O)(=O)c1ccc2c(c1)C(=Cc1cccc(OCc3ccccc3)c1)C(=O)N2", "note": "[10739/D03]", "Met Kinase % Inhibition (P.130)": "15.9%"}, {"smiles": "CNS(=O)(=O)c1ccc2c(c1)C(=Cc1ccc(OCc3ccccc3)cc1)C(=O)N2", "note": "[10739/D04]", "Met Kinase % Inhibition (P.130)": "11.1%"}, {"smiles": "CNS(=O)(=O)c1ccc2c(c1)C(=CC1COc3ccccc3O1)C(=O)N2", "note": "(stereo not shown) [10739/D05]", "Met Kinase % Inhibition (P.130)": "30.0%"}, {"smiles": "CNS(=O)(=O)c1ccc2c(c1)C(=Cc1ccc(O)cc1Cl)C(=O)N2", "note": "[10739/D06]", "Met Kinase % Inhibition (P.130)": "59.2%"}, {"smiles": "CNS(=O)(=O)c1ccc2c(c1)C(=Cc1cc(O)c(O)c(O)c1)C(=O)N2", "note": "[10739/D07]", "Met Kinase % Inhibition (P.130)": "86.0%"}, {"smiles": "CNS(=O)(=O)c1ccc2c(c1)C(=Cc1cccc(Oc3ccc(OC)cc3)c1)C(=O)N2", "note": "[10739/D08]", "Met Kinase % Inhibition (P.130)": "5.2%"}, {"smiles": "CNS(=O)(=O)c1ccc2c(c1)C(=Cc1ccc(OCCCN(C)C)cc1)C(=O)N2", "note": "[10739/D09]", "Met Kinase % Inhibition (P.130)": "66.7%"}, {"smiles": "COc1ccc(C=C2C(=O)Nc3ccc(S(=O)(=O)Nc4ccc(C(F)(F)F)cc4)cc32)cc1C", "note": "[10739/E02]", "Met Kinase % Inhibition (P.130)": "30.0%"}, {"smiles": "O=C1Nc2ccc(S(=O)(=O)Nc3ccc(C(F)(F)F)cc3)cc2C1=Cc1cccc(OCc2ccccc2)c1", "note": "[10739/E03]", "Met Kinase % Inhibition (P.130)": "−3.4%"}, {"smiles": "O=C1Nc2ccc(S(=O)(=O)Nc3ccc(C(F)(F)F)cc3)cc2C1=Cc1ccc(OCc2ccccc2)cc1", "note": "[10739/E04]", "Met Kinase % Inhibition (P.130)": "−15.2%"}, {"smiles": "O=C1Nc2ccc(S(=O)(=O)Nc3ccc(C(F)(F)F)cc3)cc2C1=CC1COc2ccccc2O1", "note": "(stereo not shown) [10739/E05]", "Met Kinase % Inhibition (P.130)": "8.9%"}, {"smiles": "O=C1Nc2ccc(S(=O)(=O)Nc3ccc(C(F)(F)F)cc3)cc2C1=Cc1ccc(O)cc1Cl", "note": "[10739/E06]", "Met Kinase % Inhibition (P.130)": "66.3%"}, {"smiles": "O=C1Nc2ccc(S(=O)(=O)Nc3ccc(C(F)(F)F)cc3)cc2C1=Cc1cc(O)c(O)c(O)c1", "note": "[10739/E07]", "Met Kinase % Inhibition (P.130)": "94.0%"}, {"smiles": "COc1ccc(Oc2cccc(C=C3C(=O)Nc4ccc(S(=O)(=O)Nc5ccc(C(F)(F)F)cc5)cc43)c2)cc1", "note": "[10739/E08]", "Met Kinase % Inhibition (P.130)": "16.1%"}, {"smiles": "CN(C)CCCOc1ccc(C=C2C(=O)Nc3ccc(S(=O)(=O)Nc4ccc(C(F)(F)F)cc4)cc32)cc1", "note": "[10739/E09]", "Met Kinase % Inhibition (P.130)": "33.8%"}, {"smiles": "O=C1Nc2ccc(S(=O)(=O)Nc3ccc(C(F)(F)F)cc3)cc2C1=Cc1ccoc1", "note": "[10739/E10]", "Met Kinase % Inhibition (P.130)": "71.9%"}, {"smiles": "O=C1Nc2ccc(S(=O)(=O)Nc3ccc(C(F)(F)F)cc3)cc2C1=Cc1ccc(CO)o1", "note": "[10739/E11]", "Met Kinase % Inhibition (P.130)": "76.9%"}, {"smiles": "COc1ccc(C=C2C(=O)Nc3ccc(S(=O)(=O)N4CCOCC4)cc32)cc1C", "note": "[10739/F02]", "Met Kinase % Inhibition (P.130)": "50.8%"}, {"smiles": "O=C1Nc2ccc(S(=O)(=O)N3CCOCC3)cc2C1=Cc1cccc(OCc2ccccc2)c1", "note": "[10739/F03]", "Met Kinase % Inhibition (P.130)": "38.8%"}, {"smiles": "O=C1Nc2ccc(S(=O)(=O)N3CCOCC3)cc2C1=Cc1ccc(OCc2ccccc2)cc1", "note": "[10739/F04]", "Met Kinase % Inhibition (P.130)": "30.4%"}, {"smiles": "O=C1Nc2ccc(S(=O)(=O)N3CCOCC3)cc2C1=CC1COc2ccccc2O1", "note": "(stereo not shown) [10739/F05]", "Met Kinase % Inhibition (P.130)": "−5.4%"}, {"smiles": "O=C1Nc2ccc(S(=O)(=O)N3CCOCC3)cc2C1=Cc1ccc(O)cc1Cl", "note": "[10739/F06]", "Met Kinase % Inhibition (P.130)": "56.3%"}, {"smiles": "O=C1Nc2ccc(S(=O)(=O)N3CCOCC3)cc2C1=Cc1cc(O)c(O)c(O)c1", "note": "[10739/F07]", "Met Kinase % Inhibition (P.130)": "100.5%"}, {"smiles": "COc1ccc(Oc2cccc(C=C3C(=O)Nc4ccc(S(=O)(=O)N5CCOCC5)cc43)c2)cc1", "note": "[10739/F08]", "Met Kinase % Inhibition (P.130)": "13.4%"}, {"smiles": "CN(C)CCCOc1ccc(C=C2C(=O)Nc3ccc(S(=O)(=O)N4CCOCC4)cc32)cc1", "note": "[10739/F09]", "Met Kinase % Inhibition (P.130)": "−7.0%"}, {"smiles": "O=C1Nc2ccc(S(=O)(=O)N3CCOCC3)cc2C1=Cc1ccoc1", "note": "[10739/F10]", "Met Kinase % Inhibition (P.130)": "40.4%"}, {"smiles": "O=C1Nc2ccc(S(=O)(=O)N3CCOCC3)cc2C1=Cc1ccc(CO)o1", "note": "[10739/F11]", "Met Kinase % Inhibition (P.130)": "40.9%"}, {"smiles": "COc1ccc(C=C2C(=O)Nc3ccc(CCCl)cc32)cc1C", "note": "[10739/G02]", "Met Kinase % Inhibition (P.130)": "12.9. %"}, {"smiles": "O=C1Nc2ccc(CCCl)cc2C1=Cc1cccc(OCc2ccccc2)c1", "note": "[10739/G03]", "Met Kinase % Inhibition (P.130)": "9.3%"}, {"smiles": "O=C1Nc2ccc(CCCl)cc2C1=Cc1ccc(OCc2ccccc2)cc1", "note": "[10739/G04]", "Met Kinase % Inhibition (P.130)": "4.1%"}, {"smiles": "O=C1Nc2ccc(CCCl)cc2C1=CC1COc2ccccc2O1", "note": "(stereo not shown) [10739/G05]", "Met Kinase % Inhibition (P.130)": "27.7%"}, {"smiles": "O=C1Nc2ccc(CCCl)cc2C1=Cc1ccc(O)cc1Cl", "note": "[10739/G06]", "Met Kinase % Inhibition (P.130)": "27.7%"}, {"smiles": "O=C1Nc2ccc(CCCl)cc2C1=Cc1cc(O)c(O)c(O)c1", "note": "[10739/G07]", "Met Kinase % Inhibition (P.130)": "92.6%"}, {"smiles": "COc1ccc(Oc2cccc(C=C3C(=O)Nc4ccc(CCCl)cc43)c2)cc1", "note": "[10739/G08]", "Met Kinase % Inhibition (P.130)": "20.9%"}, {"smiles": "CN(C)CCCOc1ccc(C=C2C(=O)Nc3ccc(CCCl)cc32)cc1", "note": "[10739/G09]", "Met Kinase % Inhibition (P.130)": "46.1%"}, {"smiles": "O=C1Nc2ccc(CCCl)cc2C1=Cc1ccoc1", "note": "[10739/G10]", "Met Kinase % Inhibition (P.130)": "36.5%"}, {"smiles": "O=C1Nc2ccc(CCCl)cc2C1=Cc1ccc(CO)o1", "note": "[10739/G11]", "Met Kinase % Inhibition (P.130)": "56.7%"}, {"smiles": "COc1ccc(C=C2C(=O)Nc3c(Br)cc(Br)c(C)c32)cc1C", "note": "[10739/H02]", "Met Kinase % Inhibition (P.130)": "26.6%"}, {"smiles": "Cc1c(Br)cc(Br)c2c1C(=Cc1cccc(OCc3ccccc3)c1)C(=O)N2", "note": "[10739/H03]", "Met Kinase % Inhibition (P.130)": "10.4%"}, {"smiles": "Cc1c(Br)cc(Br)c2c1C(=Cc1ccc(OCc3ccccc3)cc1)C(=O)N2", "note": "[10739/H04]", "Met Kinase % Inhibition (P.130)": "−2.7%"}, {"smiles": "Cc1c(Br)cc(Br)c2c1C(=Cc1ccc(O)cc1Cl)C(=O)N2", "note": "[10739/H06]", "Met Kinase % Inhibition (P.130)": "42.2%"}, {"smiles": "Cc1c(Br)cc(Br)c2c1C(=Cc1cc(O)c(O)c(O)c1)C(=O)N2", "note": "[10739/H07]", "Met Kinase % Inhibition (P.130)": "93.7%"}, {"smiles": "COc1ccc(Oc2cccc(C=C3C(=O)Nc4c(Br)cc(Br)c(C)c43)c2)cc1", "note": "[10739/H08]", "Met Kinase % Inhibition (P.130)": "22.9%"}, {"smiles": "Cc1c(Br)cc(Br)c2c1C(=Cc1ccoc1)C(=O)N2", "note": "[10739/H10]", "Met Kinase % Inhibition (P.130)": "62.4%"}]}]}
